In patent US11696901B2 (SHAOGUAN UNIVERSITY, priority 2020, dated 2023):
“And” between values parts separate entries of the source, which are not always exact repeats. Equal values may be shown once. Blank lines part the entries; values can stand above or below the compound they belong to.

Experiments:
[1] = Stability of absorbance (A/A0 after centrifugation); assay type: physicochemical; details: comparative experiment; curcumin concentration 6.0/5.8/4.8/4.0 mg/mL, pH 7/7/7/6 in row order; beverage = A3B2C2D2
Method: The absorbance (A0) of the sample before the centrifugation and the absorbance (A) of the sample after the centrifugation were measured at the maximum absorption wavelength, and the stability of absorbance was represented by A/A0.

[2] = Precipitation rate after centrifugation; assay type: physicochemical; details: comparative experiment; curcumin concentration 6.0/5.8/4.8/4.0 mg/mL, pH 7/7/7/6 in row order; beverage = A3B2C2D2
Method: The weight of the centrifuge tube and the total weight of the sample and the centrifuge tube were measured, and then the sample was centrifuged at 4,000 r/min for 15 min. The supernatant was discarded and the total weight of the centrifuge tube and the precipitate was accurately measured.
The precipitation rate was calculated as follows: precipitation rate=precipitate weight/sample weightx 100%.

[3] = Optimal concentration of stabilizer Zn^2+, absorbance of curcumin solution at 425 nm; assay type: physicochemical; details: after 60 h, room temperature
Method: A series of Zn^2+ stock solutions were prepared as follows. 0.03 g, 0.06 g, 0.09 g, 0.12 g, 0.15 g and 0.18 g of zinc sulfate were dissolved with 100 mL of distilled water and stirred uniformly to prepare a series of zinc sulfate stock solutions with a concentration of 0.3 g/L, 0.6 g/L, 0.9 g/L, 1.2 g/L, 1.5 g/L and 1.8 g/L, respectively, which were stored for use.
The 7 vessels were placed at room temperature and measured for the absorbance at 425 nm using a microplate reader every other 12 h, where each measurement was performed in triplicate.

[4] = DPPH⋅ scavenging activity; assay type: biochemical; details: positive control
Method: Moreover, it can also be acidified with citric acid to pH 4.6 and then pasteurized at 80° C. for 20 min; or filtered with a 0.22 μm organic filter for cold sterilization. The unsterilized beverage was used as control. The scavenging capacity toward DPPH free radical was used as an index to evaluate the sterilization effect, where the ascorbic acid (Vc) was used as positive control.
(§1) The beverage samples were prepared as follows.
2 mg, 4 mg, 6 mg, 8 mg and 10 mg of Vc were diluted with distilled water to 100 mL, respectively, that was, the final concentrations of the Vc were 20 μg/mL, 40 μg/mL, 60 μg/mL, 80 μg/mL and 100 μg/mL, respectively.
The reaction mixture was reacted in dark for 30 min, and then measured at 517 nm for the absorbance (A1), where a well containing the sample and 100 μL of absolute ethanol was used as control; a well containing 100 μL of distilled water and 100 μL of the DPPH solution was used as blank group; and Vc was used as positive control.
(§2) The scavenging rate was calculated as follows: scavenging rate %=[1−(A1−A2)/A0]×100%,

[5] = ABTS^+⋅ scavenging activity; assay type: biochemical; details: positive control
Method: as §1
2 mg, 4 mg, 6 mg, 8 mg and 10 mg of Vc were diluted with distilled water to 100 mL, respectively, that was, the final concentrations of the Vc were 20 μg/mL, 40 μg/mL, 60 μg/mL, 80 μg/mL and […], respectively.
5 mL of a K2S2O8 solution (2.6 mmol/L) and 10 mL of an […] (7.4 mmol/L) were mixed uniformly and reacted in dark for 12 h. The ABTS^+⋅ solution was diluted with phosphate buffer solution (pH=6.6) to an absorbance of 0.70±0.02 to produce a working solution. […] The reaction mixture was mixed uniformly, reacted in dark for 6 min and measured at 734 nm for the absorbance A1, where a well containing the sample and 160 μL of absolute ethanol was used as control; a well containing 40 μL of distilled water and 160 μL of the ABTS^+⋅ solution was used as blank group; and Vc was used as positive control.
as §2

[6] = Table 18 (starch sodium octenyl succinate series)
[7] = Table 19, one value beside each beverage (nanoparticle powder 0.2-1.0%)
[8] = Table 21, one value beside each test number
[9] = verification experiment, mean of three repeats
[10] = verification experiment, single repeats 1-3

- Coefficient of absorbanee stability [1]: 0.286 ± 0.180
- Precipitation rate after centrifugation (%) [2]: 0.550 ± 0.100%
- absorbance of curcumin solution at 425 nm over time ([3]; Zn^2+ concentration 0.36 g/L): declining tendency
SMILES: COc1cc(/C=C/C(=O)CC(=O)/C=C/c2ccc(O)c(OC)c2)ccc1O [Pure curcumin, Curcumin]
- absorbance of curcumin solution at 425 nm over time ([3]; Zn^2+ concentration 0.3 g/L): smallest slope and relatively stable absorbance

SMILES: O=C1O[C@H]([C@@H](O)CO)C(O)=C1O [Vc, ascorbic acid]
- DPPH · scavenging rate (%) Vc ([4]; Table 16 (CMC-Na series)): 92.51%
- DPPH · scavenging rate (%) Vc ([4]; Table 17 (xanthan gum series)): 92.51%
- DPPH · scavenging rate (%) Vc [4, 6]: 92.51%
- Rate of DPPH · radical clearance (%) Vc [4, 7]: 93.15% and 93.62% and 93.67% and 91.72% and 92.51%
- DPPH · scavenging rate (%) Vc [4, 8]: 95.72% and 93.44% and 94.65%
- DPPH · scavenging rate (%) Vc [4, 9]: 94.5 ± 0.00%
- DPPH · scavenging rate (%) Vc [4, 10]: 95.59% and 94.59%
- ABTS^+ · scavenging rate (%) Vc ([5]; Table 16 (CMC-Na series)): 90.38%
- ABTS^+ · scavenging rate (%) Vc ([5]; Table 17 (xanthan gum series)): 90.38%
- ABTS^+ · scavenging rate (%) Vc [5, 6]: 90.38%
- Rate of ABTS^+ · radical clearance (%) Vc [5, 7]: 92.44% and 93.69% and 94.53% and 88.12% and 90.38%
- ABTS^+ · scavenging rate (%) Vc [5, 8]: 96.13% and 92.88% and 95.10%
- ABTS^+ · scavenging rate (%) Vc [5, 9]: 95.34 ± 0.00%
- ABTS^+ · scavenging rate (%) Vc [5, 10]: 95.34%
